Measurements published in paper PMC10305218, “Expression of β-Glucosidases from the Yak Rumen in Lactic Acid Bacteria: A Genetic Engineering Approach” (Microorganisms, 2023).

System: T1, Bgl
T1 construct: gene bglA; bglA-bglB fusion (usp45-bglA-usp45-bglB, pMG36e) secreted by L. lactis NZ9000; gene 2722 bp; printed about 75 kDa (less than the sum of both); supernatant / TCA-acetone precipitate
Experiment: DNS reducing sugar assay, Michaelis-Menten / Lineweaver-Burk fit
Format: biochemical, Paenibacillus polymyxa
Details: 50 °C, pH 7.0; bacterial supernatant
Source text: DNS reducing sugar assay, Michaelis-Menten / Lineweaver-Burk fit on Bgl

SMILES: OCc1ccccc1O[C@@H]1O[C@H](CO)[C@@H](O)[C@H](O)[C@H]1O [salicin]
- Km: 34.8 µM
